The results in this text go back to ChEMBL document CHEMBL4020822, “Identification of N-{cis-3-[Methyl(7H-pyrrolo[2,3-d]pyrimidin-4-yl)amino]cyclobutyl}propane-1-sulfonamide (PF-04965842): A Selective JAK1 Clinical Candidate for the Treatment of Autoimmune Diseases” (J Med Chem, 2018).

One series can be described thus: physchem. Conditions: octanol/water phosphate buffer, pH 7.4.
Series [1] can be described thus: Aqueous solubility of the compound at pH 7.4. Format: physicochemical.
A short description of series [2]: Oral bioavailability in rat at 3 mg/kg. Format: ADME, organism-based. Conditions: in vivo.
Series [3] in a line: Apparent permeability in RRCK cells from apical to basolateral side. Conditions: dog, MDCK. Format: ADME, cell-based, Canis lupus familiaris, MDCKII-LE.
Series [4] is described as follows: Volume of distribution at steady state in rat at 1 mg/kg, iv or 3 mg/kg, po. Format: ADME, organism-based. Particulars: in vivo, read-out: Vdss.
A short description of series [5]: Tmax in freund's adjuvant-induced Lewis rat arthritis model blood at 15 mg/kg, po qd administered via oral gavage measured on day 7. Format: ADME, organism-based.

SMILES strings stand for the structures. Values after ≈ are worked out from the molar mass of the structure shown.

Compound `CN(c1ncnc2[nH]ccc12)[C@H]1C[C@@H](NS(=O)(=O)CC(F)(F)F)C1` had a logD in the series “physchem” of 1.9.
Same read-out and setting: with `CC(C)CS(=O)(=O)N[C@H]1C[C@@H](N(C)c2ncnc3[nH]ccc23)C1` the figure was 2.4.
The compound `CN(c1ncnc2[nH]ccc12)[C@H]1C[C@@H](NS(=O)(=O)CC2COC2)C1` registered a solubility in series [1] of 437 µM (≈ 154 µg/mL). The bioavailability in series [2] stood at 48.3%. The compound further showed a logD in the series “physchem” of 1. For the same compound, the apparent permeability from apical to basolateral (Papp A→B) in series [3] came to 3 ×10⁻⁶ cm/s. Moreover, in series [4], the Vd was 1.99 L/kg.
`CN(c1ncnc2[nH]ccc12)[C@H]1C[C@@H](NS(=O)(=O)CC2CC2)C1` yielded a logD in “physchem” of 1.8.
The same measure, in the same setting: to `CN(c1ncnc2[nH]ccc12)[C@H]1C[C@@H](NS(=O)(=O)NCC2CC2)C1` belongs 2.1; to `CN(CCC#N)S(=O)(=O)N[C@H]1C[C@@H](N(C)c2ncnc3[nH]ccc23)C1`, 1.3.
`CCCCS(=O)(=O)C[C@H]1C[C@@H](N(C)c2ncnc3[nH]ccc23)C1` registered a solubility in series [1] of 213 µM (≈ 71.7 µg/mL). Also, the bioavailability in series [2] is 119%. In “physchem”, the pH-dependent lipophilicity (logD) is 2.2. The Papp A→B in series [3] was found to be 23 ×10⁻⁶ cm/s. Also, the Vd in series [4] amounted to 0.74 L/kg.
As for `CN(c1ncnc2[nH]ccc12)[C@H]1C[C@@H](NS(=O)(=O)C2CC2)C1`, the logD in “physchem” was 1.6.
The same measure, in the same setting: with `CCCNS(=O)(=O)C[C@H]1C[C@@H](N(C)c2ncnc3[nH]ccc23)C1` the figure was 2.1.
On the same count and under the same terms, with `CN(C1CC1)S(=O)(=O)N[C@H]1C[C@@H](N(C)c2ncnc3[nH]ccc23)C1` the figure was 2.2; with `COCCS(=O)(=O)N[C@H]1C[C@@H](N(C)c2ncnc3[nH]ccc23)C1`, 1.2.
`CCCCN(C)S(=O)(=O)C[C@H]1C[C@@H](N(C)c2ncnc3[nH]ccc23)C1`: the logD in the series “physchem” came out at 3.
Consider `CN(c1ncnc2[nH]ccc12)[C@H]1C[C@@H](CS(=O)(=O)NCC2CC2)C1`, for which, in “physchem”, the logD amounted to 2.2.
The same measure, in the same setting: with `CN(c1ncnc2[nH]ccc12)[C@H]1C[C@@H](NS(=O)(=O)CC2CCC2)C1` the figure was 2.4; with `CCNS(=O)(=O)N[C@H]1C[C@@H](N(C)c2ncnc3[nH]ccc23)C1`, 1.6.
On the same count and under the same terms, with `CN(c1ncnc2[nH]ccc12)[C@H]1C[C@@H](CS(=O)(=O)C2CC2)C1` the figure was 1.6; with `CN(c1ncnc2[nH]ccc12)[C@H]1C[C@@H](NS(=O)(=O)N2CCCCC2)C1`, 2.7.
On the same count and under the same terms, to `CN(c1ncnc2[nH]ccc12)[C@H]1C[C@@H](NS(=O)(=O)NC2CC2)C1` belongs 1.6; to `CN(c1ncnc2[nH]ccc12)[C@H]1C[C@@H](NS(=O)(=O)CCCC(F)(F)F)C1`, 2.4; to `CN(c1ncnc2[nH]ccc12)[C@H]1C[C@@H](NS(=O)(=O)NCCCC#N)C1`, 1.2.
In the series “physchem”, `CN(c1ncnc2[nH]ccc12)[C@H]1C[C@@H](NS(=O)(=O)Cc2ccccc2)C1` displayed a logD of 2.6.
Same read-out and setting: with `CCN(C)S(=O)(=O)N[C@H]1C[C@@H](N(C)c2ncnc3[nH]ccc23)C1` the figure was 2.1; with `COCCCS(=O)(=O)N[C@H]1C[C@@H](N(C)c2ncnc3[nH]ccc23)C1`, 1.5.
In “physchem”, `CCCCS(=O)(=O)N[C@H]1C[C@@H](N(C)c2ncnc3[nH]ccc23)C1` had a logD of 2.4.
`CCNS(=O)(=O)C[C@H]1C[C@@H](N(C)c2ncnc3[nH]ccc23)C1` showed a logD in “physchem” of 1.5.
Still for that read-out and setting: to `CCCS(=O)(=O)C[C@H]1C[C@@H](N(C)c2ncnc3[nH]ccc23)C1` belongs 1.7; to `CCS(=O)(=O)N[C@H]1C[C@@H](N(C)c2ncnc3[nH]ccc23)C1`, 1.4; to `CCCCNS(=O)(=O)C[C@H]1C[C@@H](N(C)c2ncnc3[nH]ccc23)C1`, 2.6.
Still for that read-out and setting: with `CN(CC1CC1)S(=O)(=O)C[C@H]1C[C@@H](N(C)c2ncnc3[nH]ccc23)C1` the figure was 2.7.
On the same count and under the same terms, to `CCCNS(=O)(=O)N[C@H]1C[C@@H](N(C)c2ncnc3[nH]ccc23)C1` belongs 2.
In series [1], `CN(c1ncnc2[nH]ccc12)[C@H]1C[C@@H](NS(=O)(=O)CCCC#N)C1` registered a solubility of 259 µM (≈ 90.2 µg/mL). The bioavailability in series [2] was determined as 61.1%. In addition, in series [3], the apical-to-basolateral permeability (Papp A→B) is 4 ×10⁻⁶ cm/s. Moreover, the Vd in series [4] worked out at 1.42 L/kg.
In the case of `CCS(=O)(=O)C[C@H]1C[C@@H](N(C)c2ncnc3[nH]ccc23)C1`, the logD in the series “physchem” amounted to 1.2.
The compound `CN(c1ncnc2[nH]ccc12)[C@H]1C[C@@H](NS(C)(=O)=O)C1` returned a logD in “physchem” of 1.2.
In the series “physchem”, `CN(c1ncnc2[nH]ccc12)[C@H]1C[C@@H](NS(=O)(=O)c2ccccc2)C1` yielded a pH-dependent lipophilicity (logD) of 2.8.
The same measure, in the same setting: with `CCCS(=O)(=O)N[C@H]1C[C@H](N(C)c2ncnc3[nH]ccc23)C1` the figure was 2; with `CN(c1ncnc2[nH]ccc12)[C@H]1C[C@@H](NS(=O)(=O)CCC(F)(F)F)C1`, 2.4.
In the series “physchem”, `CN(c1ncnc2[nH]ccc12)[C@H]1C[C@@H](CS(=O)(=O)c2ccccc2)C1` returned a logD of 2.7.
The same measure, in the same setting: to `CN(c1ncnc2[nH]ccc12)[C@H]1C[C@@H](NS(=O)(=O)c2ccc(F)cc2)C1` belongs 2.8.
Still for that read-out and setting: with `CN(c1ncnc2[nH]ccc12)[C@H]1C[C@@H](CS(=O)(=O)N2CCCC2)C1` the figure was 2.1.
Consider `CCCS(=O)(=O)N[C@H]1C[C@@H](N(C)c2ncnc3[nH]ccc23)C1` [ABROCITINIB], for which the solubility in series [1] is 503 µM (≈ 163 µg/mL). Further, the bioavailability in series [2] amounted to 95.6%. Further, in “physchem”, the log distribution coefficient (logD) is 1.9. Moreover, the Papp A→B in series [3] turned out to be 16 ×10⁻⁶ cm/s. Besides, the Tmax in series [5] turned out to be 15 min. Moreover, the Vd in series [4] is 1.04 L/kg.
Turning to `CCS(=O)(=O)N1CC(CC#N)(n2cc(-c3ncnc4[nH]ccc34)cn2)C1` [BARICITINIB], in the series “physchem”, the logD turned out to be 1.2.
The same measure, in the same setting: with `N#CC[C@H](C1CCCC1)n1cc(-c2ncnc3[nH]ccc23)cn1` [RUXOLITINIB] the figure was 2.7; with `C[C@@H]1CCN(C(=O)CC#N)C[C@@H]1N(C)c1ncnc2[nH]ccc12` [TOFACITINIB], 1.1.
